According to patent US20080161249A1, “Use of Novel Antibacterial Compounds” (SMITHKLINE BEECHAM CORPORATION, priority 2004, published 2008):
Converted amounts (≈) assume the structure as drawn. Read-outs that look alike come from different tables or passages of the source.

How the values were obtained:
[1] = system: S. aureus strain PK1; test: MIC against S. aureus strain PK1, alone and in combination; type: cell-based, Staphylococcus aureus
From the text: (§1) Subinhibitory Concentrations of PDF Inhibitors Decrease the MICs of Macrolides against Representative S. aureus Strains
(§2) Subinhibitory Concentrations of Macrolides Decrease the MICs of PDF Inhibitors against Representative S. aureus Strains

[2] = system: H. influenzae Q1; test: MIC against H. influenzae Q1, alone and with subinhibitory concentrations of a second agent; type: cell-based, Haemophilus influenzae;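 note: combinations paired PDF inhibitors with macrolides, one class added below its own MIC to test whether the MIC of the other class dropped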
[3] = system: S. aureus strain RN4220; test: MIC against S. aureus strain RN4220, alone and in combination; type: cell-based, Staphylococcus aureus
[4] = system: S. aureus strain Oxford; test: MIC against S. aureus strain Oxford, alone and in combination; type: cell-based, Staphylococcus aureus
From the text: as §1, §2

[5] = system: S. aureus strain Smith; test: MIC against S. aureus strain Smith, alone and in combination; type: cell-based, Staphylococcus aureus
[6] = system: S. pneumoniae 1629; test: MIC against S. pneumoniae 1629, alone and with subinhibitory concentrations of a second agent; type: cell-based, Streptococcus pneumoniae; details: for MIC, antibiotic with 0.06 ug/mL (¼ MIC) of Compound (1b) / MIC, antibiotic alone / fold decrease MIC, antibiotic with 0.06 ug/mL (¼ MIC) of Compound (1b) / MIC, antibiotic with […] (½ MIC) of Compound (1b) / fold decrease MIC, antibiotic with […] (½ MIC) of Compound (1b) / Compound (1b) fold decrease MIC: S. pneumoniae 1629; for MIC, antibiotic with 0.06 ug/mL (¼ MIC) of Compound (1b) / fold decrease MIC, antibiotic with 0.06 ug/mL (¼ MIC) of Compound (1b): +0.06 ug/mL Compound (1b); for MIC, antibiotic alone: single agent; for MIC: Streptococcus pneumoniae, 1629, S. pneumoniae 1629
[7] = system: S. aureus WCUH29; test: MIC against S. aureus WCUH29, alone and with subinhibitory concentrations of a second agent; type: cell-based, Staphylococcus aureus; details: for MIC, antibiotic with 1 ug/mL (½ MIC) of Compound (1a) / MIC, antibiotic alone / MIC, antibiotic with 0.5 ug/mL (¼ MIC) of Compound (1a) / fold decrease MIC, antibiotic with 0.5 ug/mL (¼ MIC) of Compound (1a) / fold decrease MIC, antibiotic with 1 ug/mL (½ MIC) of Compound (1a): S. aureus WCUH29; for MIC, antibiotic with 1 ug/mL (½ MIC) of Compound (1a) / fold decrease MIC, antibiotic with 1 ug/mL (½ MIC) of Compound (1a): +1 ug/mL Compound (1a); for MIC, antibiotic alone: single agent; for decrease of MIC by subinhibitory concentrations of Compound (1a): S. aureus, Example 3; for MIC: Staphylococcus aureus, WCUH29, S. aureus WCUH29, no second agent, read-out: MIC, single agent; for MIC, antibiotic with 0.5 ug/mL (¼ MIC) of Compound (1a) / fold decrease MIC, antibiotic with 0.5 ug/mL (¼ MIC) of Compound (1a): +0.5 ug/mL Compound (1a)
[8] = Staphylococcus aureus, macrolide alone, read-out: MIC, −Compound (1a)
[9] = H. influenzae Q1, +0.5 ug/mL Compound (1a)
[10] = H. influenzae Q1, single agent (Example 7)
[11] = no second agent, read-out: MIC, single agent
[12] = H. influenzae Q1, +1 ug/mL Compound (1a)
[13] = H. influenzae Q1, +0.25 ug/m Azithromycin
[14] = H. influenzae Q1, +0.5 ug/mL Azithromycin

Structure (SMILES)	MIC, antibiotic with 0.5 ug/mL (¼ MIC) of Compound (1a) [2, 9] [µg/mL]	MIC, antibiotic alone [2, 10] [µg/mL]	decrease of MIC by subinhibitory concentrations of Compound (1b) ([6]; S. pneumoniae)	MIC, antibiotic with 0.06 ug/mL (¼ MIC) of Compound (1b) [6] [µg/mL]	MIC, antibiotic alone [6] [µg/mL]	MIC [6, 11] [µg/mL]	MIC, antibiotic with 1 ug/mL (½ MIC) of Compound (1a) [7] [µg/mL]	MIC, antibiotic alone [7] [µg/mL]	decrease of MIC by subinhibitory concentrations of Compound (1a) [7]	MIC [7] [µg/mL]	MIC, antibiotic with 1 ug/mL (½ MIC) of Compound (1a) [2, 12] [µg/mL]	fold decrease MIC, antibiotic with 0.06 ug/mL (¼ MIC) of Compound (1b) [6]	MIC, antibiotic with […] (½ MIC) of Compound (1b) [6] [µg/mL]	fold decrease MIC, antibiotic with […] (½ MIC) of Compound (1b) [6]	MIC, antibiotic with 0.5 ug/mL (¼ MIC) of Compound (1a) [7] [µg/mL]	fold decrease MIC, antibiotic with 0.5 ug/mL (¼ MIC) of Compound (1a) [7]	fold decrease MIC, antibiotic with 1 ug/mL (½ MIC) of Compound (1a) [7]	other results
CC[C@H]1OC(=O)[C@H](C)[C@@H](O[C@H]2C[C@@](C)(OC)[C@@H](O)[C@H](C)O2)[C@H](C)[C@@H](O[C@@H]2O[C@H](C)C[C@H](N(C)C)[C@H]2O)[C@](C)(O)C[C@@H](C)CN(C)[C@H](C)[C@@H](O)[C@]1(C)O [Azithromycin, azithromycin]	0.25	1 (≈ 1.34 µM)	2-8 fold	0.016	0.03 (≈ 0.0401 µM)	0.03 (≈ 0.0401 µM)	0.03	1 (≈ 1.34 µM)	8-32 fold	1 (≈ 1.34 µM)	–	–	–	–	–	–	–	MIC [1, 8]: > 64 µg/mL; MIC, +Compound (1a) [¼ × MIC] ([1]; with ¼ × MIC of Compound (1a)): 32 µg/mL; MIC, +Compound (1a) [½ × MIC] ([1]; with ½ × MIC of Compound (1a)): 16 µg/mL; MIC [3, 8]: 1 µg/mL; MIC, +Compound (1a) [¼ × MIC] ([3]; with ¼ × MIC of Compound (1a)): 0.25 µg/mL; MIC [4, 8]: 0.5 µg/mL; MIC, +Compound (1a) [¼ × MIC] ([4]; with ¼ × MIC of Compound (1a)): 0.25 µg/mL; MIC, +Compound (1a) [½ × MIC] ([4]; with ½ × MIC of Compound (1a)): 0.06 µg/mL; MIC [5, 8]: 1 µg/mL; MIC, +Compound (1a) [¼ × MIC] ([5]; with ¼ × MIC of Compound (1a)): 0.25 µg/mL
O=C(O)c1cn(C2CC2)c2cc(N3CCNCC3)c(F)cc2c1=O [Ciprofloxacin, ciprofloxacin]	0.008	0.008 (≈ 0.0241 µM)	no effect	0.5	0.5 (≈ 1.51 µM)	0.5 (≈ 1.51 µM)	0.25	0.25 (≈ 0.754 µM)	no effect	0.25 (≈ 0.754 µM)	0.008	[0] fold	0.5	[0] fold	0.25	[0] fold	[0] fold	fold decrease MIC, antibiotic with 0.5 ug/mL (¼ MIC) of Compound (1a) [2, 9]: [0] fold; fold decrease MIC, antibiotic with 1 ug/mL (½ MIC) of Compound (1a) [2, 12]: [0] fold; decrease of MIC by subinhibitory concentrations of Compound (1a) ([2]; H. influenzae, text summary of Example 7): no effect
O=CN(O)C[C@@H](CC1CCCC1)C(=O)NNc1nc(N2CCOCC2)cc(C(F)(F)F)n1 [Compound (1b), N-hydroxy-N-((2R)-2-(cyclopentylmethyl)-3-{N′-[4-(morpholin-4-yl)-6-(trifluoromethyl)-pyrimidin-2-yl]-hydrazino}-3-oxopropyl)-formamide]	–	–	–	–	–	0.25 (≈ 0.543 µM)	–	–	–	–	–	–	–	–	–	–	–	decrease of MIC by subinhibitory concentrations of azithromycin ([6]; S. pneumoniae): 4-16 fold; decrease of MIC by subinhibitory concentrations of erythromycin ([6]; S. pneumoniae): 8-32 fold; effect of subinhibitory concentrations of ciprofloxacin on antibacterial potency ([6]; S. pneumoniae): no effect; effect of subinhibitory concentrations of mupirocin on antibacterial potency ([6]; S. pneumoniae): no effect; Compound (1b) fold decrease MIC ([6]; +Azithromycin 0.008 μg/ml {¼ × MIC}): [4] fold; Compound (1b) fold decrease MIC ([6]; +Azithromycin […] {½ × MIC}): [16] fold; Compound (1b) fold decrease MIC ([6]; +Ciprofloxacin 0.25 μg/ml {½ × MIC}): [0] fold; Compound (1b) fold decrease MIC ([6]; +Ciprofloxacin […] {¼ × MIC}): [0] fold; Compound (1b) fold decrease MIC ([6]; +Erythromycin 0.008 μg/ml {¼ × MIC}): [8] fold; Compound (1b) fold decrease MIC ([6]; +Erythromycin […] {½ × MIC}): [32] fold; Compound (1b) fold decrease MIC ([6]; +Mupirocin 0.25 μg/ml {½ × MIC}): [0] fold; Compound (1b) fold decrease MIC ([6]; +Mupirocin […] {¼ × MIC}): [0] fold; MIC ([6]; +Azithromycin 0.008 μg/ml {¼ × MIC}, read-out: Compound (1b) MIC): 0.06 µg/mL (≈ 0.13 µM); MIC ([6]; +Azithromycin […] {½ × MIC}, read-out: Compound (1b) MIC): 0.016 µg/mL (≈ 0.0347 µM); MIC ([6]; +Ciprofloxacin 0.25 μg/ml {½ × MIC}, read-out: Compound (1b) MIC): 0.25 µg/mL (≈ 0.543 µM); MIC ([6]; +Ciprofloxacin […] {¼ × MIC}, read-out: Compound (1b) MIC): 0.25 µg/mL (≈ 0.543 µM); MIC ([6]; +Erythromycin 0.008 μg/ml {¼ × MIC}, read-out: Compound (1b) MIC): 0.03 µg/mL (≈ 0.0652 µM); MIC ([6]; +Erythromycin […] {½ × MIC}, read-out: Compound (1b) MIC): 0.008 µg/mL (≈ 0.0174 µM); MIC ([6]; +Mupirocin 0.25 μg/ml {½ × MIC}, read-out: Compound (1b) MIC): 0.25 µg/mL (≈ 0.543 µM); MIC ([6]; +Mupirocin […] {¼ × MIC}, read-out: Compound (1b) MIC): 0.25 µg/mL (≈ 0.543 µM)
CCCCC[C@H](CN(O)C=O)C(=O)NNc1nnc2cccc(C)c2n1 [Compound (1c), N-hydroxy((2R)-2-{[2-(5-methyl-1,2,4-benzotriazin-3-yl)hydrazino]carbonyl}heptyl)formamide]	–	–	–	–	–	–	–	–	–	–	–	–	–	–	–	–	–	MIC, antibiotic with 0.25 ug/m (¼ MIC) of Azithromycin [2, 13]: 0.5 µg/mL; fold decrease MIC, antibiotic with 0.25 ug/m (¼ MIC) of Azithromycin [2, 13]: [2] fold; MIC, antibiotic with 0.5 ug/mL (½ MIC) of Azithromycin [2, 14]: 0.125 µg/mL; fold decrease MIC, antibiotic with 0.5 ug/mL (½ MIC) of Azithromycin [2, 14]: [8] fold; MIC, antibiotic alone ([2]; H. influenzae Q1, single agent (Example 8)): 1 µg/mL (≈ 2.77 µM)
CC[C@H]1OC(=O)[C@H](C)[C@@H](O[C@H]2C[C@@](C)(OC)[C@@H](O)[C@H](C)O2)[C@H](C)[C@@H](O[C@@H]2O[C@H](C)C[C@H](N(C)C)[C@H]2O)[C@](C)(O)C[C@@H](C)C(=O)[C@H](C)[C@@H](O)[C@]1(C)O [Erythromycin, erythromycin]	2	8 (≈ 10.9 µM)	4-16 fold	0.008	0.03 (≈ 0.0409 µM)	0.03 (≈ 0.0409 µM)	0.016	0.25 (≈ 0.341 µM)	2-16 fold	0.25 (≈ 0.341 µM)	1	–	–	–	–	–	–	–
C/C(=C\C(=O)OCCCCCCCCC(=O)O)C[C@@H]1OC[C@H](C[C@@H]2O[C@H]2[C@@H](C)[C@H](C)O)[C@@H](O)[C@H]1O [Mupirocin, mupirocin]	–	–	no effect	0.5	0.5 (≈ 0.999 µM)	0.5 (≈ 0.999 µM)	0.125	0.125 (≈ 0.25 µM)	no effect	–	–	[0] fold	0.5	[0] fold	0.125	[0] fold	[0] fold	–
